This assay deals with T1, PILS-Nir1 (6xHis-tagged LNS2 domain of Nir1) (Homo sapiens, UniProt Q9BZ71).
T1 construct: gene PITPNM3; LNS2 (PILS) domain, residues 609-912 in Methods but 604-912 in Results; TEV-cleavable N-terminal 6xHis tag (pTHT), codon-optimised, expressed in E. coli BL21(DE3) RIPL
T1 sequence (Q9BZ71 609-912): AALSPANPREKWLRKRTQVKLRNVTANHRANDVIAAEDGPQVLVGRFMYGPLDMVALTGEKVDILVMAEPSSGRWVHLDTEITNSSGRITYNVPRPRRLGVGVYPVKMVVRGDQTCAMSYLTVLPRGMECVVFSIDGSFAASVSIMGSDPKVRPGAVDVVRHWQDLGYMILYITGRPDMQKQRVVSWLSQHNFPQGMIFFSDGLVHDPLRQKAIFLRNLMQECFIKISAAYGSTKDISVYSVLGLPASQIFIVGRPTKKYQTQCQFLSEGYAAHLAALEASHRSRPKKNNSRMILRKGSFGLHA
Kind of assay: liposome cosedimentation, SDS-PAGE densitometry. Particulars: 20 mol% PA / 80 mol% PC liposomes, 20 mM Tris pH 7.5, 150 mM NaCl; one-site fit with background; 95% C.I. 110.1–789.9 µM. It is filed as binding.

Broadly, the Kd is the constant that tells how readily two partners part at equilibrium. Higher therefore signals a looser complex. Regarding phosphatidic acid [PA], the equilibrium dissociation constant (Kd) was 422 µM.

The record behind these values is publication PMC12419160 (The Journal of Cell Biology, 2025).
